{
  "source": "patent US10865415B2",
  "about": "“Prevention, diagnosis and treatment of cancer overexpressing GPR160” (Shanghai Institute of Materia Medica, Chinese Academy of …, priority 2015, dated 2020)",
  "format_in_all_cases": "cell-based, human",
  "key": {"GPR160 gene": {"test_system": "GPR160 gene", "test": "Quantitative RT-PCR of GPR160 expression after lentiviral shRNA infection", "settings": "compared with control virus ShGPR160-S10", "from_the_text": "The total RNA of each cultured cell was extracted with Trizol reagent (Invitrogen), Oligo-dT was used as primer, and reverse transcriptase was transcribed to generate cDNA. The template and primers were mixed with SYBR detection reagents (TaKaRa) and detected by 7300 Quantitative PCR instrument. The reference gene encodes the β-actin gene ACTB (NC 000007.14).\nThe lentivirus shRNA expression plasmid (Cat. No. TL312662) was purchased from OriGene, in which the target gene sequence targeted by the GPR160 siRNA is shown in SEQ ID NO: 1, and the sense strand sequence of the siRNA is shown in SEQ ID NO.: 6, SEQ ID NO: 7, SEQ ID NO.: 8, SEQ ID NO: 9, respectively. The sense strand sequence of the non-specific control siRNA is shown in SEQ ID NO: 10.\nThe siRNA expression plasmid pGFP-C-shGPR160 and the control plasmid pGFP-C-Scramble were extracted with Qiagene plasmid extraction kit and mixed with the packaging plasmid, and then 293T cells that had been inoculated for 24 hours were transfected with MegaTran (OriGene), and the virus supernatant was collected after 72 hours. After centrifugation at 15000 rpm for 15 minutes to remove cell debris, a quarter volume of Lentivirus Concentration (Biomiga) was added for concentration, and was stored at −80° C. in aliquots. Viruses produced by transfection of pGFP-C-shGPR160 plasmid containing the sequences SEQ ID NO: 6 to SEQ ID NO: 9 were labeled as ShGPR160-S6, ShGPR160-S7, ShGPR160-S8, and ShGPR160-S9, respectively. The virus produced by transfection of the non-specific control plasmid was designated ShGPR160-S10.\nPC-3 and LNCaP cells were infected with the prepared lentiviruses at multiplicity of infection (MOI) of 40 and 10, respectively. After 72 hours, the total RNA of the infected cells was extracted, and the expression of GPR160 in the cells was detected by quantitative RT-PCR."}, "LNCaP cells [1]": {"test_system": "LNCaP cells", "test": "CCK-8 proliferation assay", "settings": "infected 48 hours, cultured 1, 3 and 5 days, Scramble group = 100%", "protocol": "(§1) To examine the effect of GPR160-specific SiRNAs on proliferation of prostate cancer cells, PC-3 and LNCaP cells, after infected by virus for 48 hours, were plated in 96-well plates at a density of 5000/100/μl/well and 2500/100 μl/well, respectively, and cultured for 1, 3, and 5 days respectively, 10 μl/well of CCK-8 detection reagent (TaKaRa) was added 4 hours before the end of culture, and light absorption at 450 nm was detected at the end of incubation. The reference wavelength was 650 nm. The reading of Scramble group was set to 100%."}, "PC-3 cells [2]": {"test_system": "PC-3 cells", "test": "CCK-8 proliferation assay", "settings": "infected 48 hours, cultured 1, 3 and 5 days, Scramble group = 100%", "protocol": "as §1"}, "PC-3 cells [3]": {"test_system": "PC-3 cells", "test": "Colony formation, crystal violet staining", "settings": "12 to 20 days culture, versus ShGPR160-S10 control group (100%)", "protocol": "(§2) Based on the above results, PC-3 and LNCaP cells were infected with ShGPR160-S6, ShGPR160-S7, and ShGPR160-S10 for 48 hours, and inoculated into […] at 1000/2 ml/well. After 12 to 20 days of continuous culture, the cells were stained with 0.1% crystal violet solution, dried, and the number of colonies per well counted. The group infected with ShGPR160-S10 virus was set as a 100% control."}, "LNCaP cells [4]": {"test_system": "LNCaP cells", "test": "Colony formation, crystal violet staining", "settings": "12 to 20 days culture, versus ShGPR160-S10 control group (100%)", "protocol": "as §2"}, "[5]": {"settings": "LNCaP cells, MOI 10, 72 hours after infection"}, "[6]": {"settings": "PC-3 cells, MOI 40, 72 hours after infection"}},
  "note": "Entries after “also recorded” stand apart in the source; their conditions may differ.",
  "data": [
    {"substance": "ShGPR160-S9: Lentivirus from pGFP-C-shGPR160 plasmid; siRNA sense strand SEQ ID NO.: 9, 5′-CCATTTGTCAACTGGAAGTGCTGCTTCAT-3′", "values": [
      {"measurement": "inhibitory efficiency on GPR160 expression", "setting": "GPR160 gene; [5]", "result": 56.2, "unit": "%"},
      {"measurement": "inhibitory efficiency on GPR160 expression", "setting": "GPR160 gene; [6]", "result": 41.8, "unit": "%"}
    ]},
    {"substance": "ShGPR160-S8: Lentivirus from pGFP-C-shGPR160 plasmid; siRNA sense strand SEQ ID NO.: 8, 5′-CCATCTACCAAAGCCTGAAGGCACAGAAT-3′", "values": [
      {"measurement": "effect on proliferation", "setting": "LNCaP cells [1]", "result": "no inhibitory effect; also recorded: no significant effect"},
      {"measurement": "inhibitory efficiency on GPR160 expression", "setting": "GPR160 gene; [5]", "result": 32.8, "unit": "%"},
      {"measurement": "inhibitory efficiency on GPR160 expression", "setting": "GPR160 gene; [6]", "result": 41.7, "unit": "%"}
    ]},
    {"substance": "ShGPR160-S6: Lentivirus from pGFP-C-shGPR160 plasmid; siRNA sense strand SEQ ID NO.: 6, 5′-TTGGTACAGGCTATCAGGATAACTTCCTA-3′", "values": [
      {"measurement": "effect on proliferation", "setting": "PC-3 cells [2]", "result": "significantly inhibited"},
      {"measurement": "effect on proliferation", "setting": "LNCaP cells [1]", "result": "significantly inhibited"},
      {"measurement": "number of clones formed", "setting": "PC-3 cells [3]", "result": "significantly less"},
      {"measurement": "number of clones formed", "setting": "LNCaP cells [4]", "result": "significantly less"},
      {"measurement": "inhibitory efficiency on GPR160 expression", "setting": "GPR160 gene; [5]", "result": 86.2, "unit": "%"},
      {"measurement": "inhibitory efficiency on GPR160 expression", "setting": "GPR160 gene; [6]", "result": 87.8, "unit": "%"}
    ]},
    {"substance": "ShGPR160-S7: Lentivirus from pGFP-C-shGPR160 plasmid; siRNA sense strand SEQ ID NO.: 7, 5′-TTCTATGTCAGCATTCAGAGTTACTGGCT-3′", "values": [
      {"measurement": "effect on proliferation", "setting": "PC-3 cells [2]", "result": "significantly inhibited"},
      {"measurement": "effect on proliferation", "setting": "LNCaP cells [1]", "result": "significantly inhibited"},
      {"measurement": "number of clones formed", "setting": "PC-3 cells [3]", "result": "significantly less"},
      {"measurement": "number of clones formed", "setting": "LNCaP cells [4]", "result": "significantly less"},
      {"measurement": "inhibitory efficiency on GPR160 expression", "setting": "GPR160 gene; [5]", "result": 91.7, "unit": "%"},
      {"measurement": "inhibitory efficiency on GPR160 expression", "setting": "GPR160 gene; [6]", "result": 85.0, "unit": "%"}
    ]}
  ]
}
